In the NIST ThermoML archive (doi:10.1016/j.fluid.2018.09.026):
Values joined by “and” are separate entries in the source; they are usually repeats but may differ in a detail not shown here. Equal entries are not always repeated.

Conditions: Liquid; for mass density: Vibrating tube method; for viscosity: Vibrating wire viscometry

OCCOCCOCCO [triethylene glycol]
Conditions	mass density	viscosity
283.15 K, 100 kPa	1130.8 kg/m3	–
283.15 K, 660 kPa	1131 kg/m3	–
283.15 K, 1150 kPa	1131.2 kg/m3	–
283.15 K, 1570 kPa	1131.4 kg/m3	–
283.15 K, 2090 kPa	1131.6 kg/m3	–
283.15 K, 3090 kPa	1132 kg/m3	–
283.15 K, 5060 kPa	1132.9 kg/m3	–
283.15 K, 6940 kPa	1133.6 kg/m3	–
283.15 K, 10020 kPa	1134.9 kg/m3	–
283.15 K, 14850 kPa	1136.9 kg/m3	–
283.15 K, 19830 kPa	1138.9 kg/m3	–
283.15 K, 24700 kPa	1140.8 kg/m3	–
283.15 K, 29600 kPa	1142.7 kg/m3	–
283.15 K, 34510 kPa	1144.6 kg/m3	–
283.15 K, 39360 kPa	1146.4 kg/m3	–
283.15 K, 44290 kPa	1148.2 kg/m3	–
283.15 K, 49180 kPa	1150 kg/m3	–
283.15 K, 54110 kPa	1151.7 kg/m3	–
283.15 K, 58970 kPa	1153.4 kg/m3	–
283.15 K, 63860 kPa	1155.1 kg/m3	–
283.15 K, 68790 kPa	1156.8 kg/m3	–
293.15 K, 100 kPa	1122.9 kg/m3	–
293.15 K, 640 kPa	1123.1 kg/m3	–
293.15 K, 1090 kPa	1123.4 kg/m3	–
293.15 K, 1600 kPa	1123.6 kg/m3	–
293.15 K, 2140 kPa	1123.8 kg/m3	–
293.15 K, 3080 kPa	1124.2 kg/m3	–
293.15 K, 5030 kPa	1125.1 kg/m3	–
293.15 K, 7010 kPa	1125.9 kg/m3	–
293.15 K, 9950 kPa	1127.2 kg/m3	–
293.15 K, 14850 kPa	1129.3 kg/m3	–
293.15 K, 19770 kPa	1131.3 kg/m3	–
293.15 K, 24660 kPa	1133.3 kg/m3	–
293.15 K, 29510 kPa	1135.2 kg/m3	–
293.15 K, 34610 kPa	1137.2 kg/m3	–
293.15 K, 39370 kPa	1139.1 kg/m3	–
293.15 K, 44320 kPa	1141 kg/m3	–
293.15 K, 49130 kPa	1142.8 kg/m3	–
293.15 K, 54050 kPa	1144.6 kg/m3	–
293.15 K, 59060 kPa	1146.4 kg/m3	–
293.15 K, 63780 kPa	1148 kg/m3	–
293.35 K, 240 kPa	–	46.83 mPa·s [middle of 4 runs]
293.35 K, 1160 kPa	–	47.82 mPa·s
293.35 K, 1200 kPa	–	47.73 mPa·s
293.35 K, 1230 kPa	–	47.49 mPa·s
293.35 K, 1240 kPa	–	47.46 mPa·s and 47.21 mPa·s and 47.42 mPa·s
293.35 K, 2170 kPa	–	48.09 mPa·s
293.35 K, 2200 kPa	–	47.9 mPa·s
293.35 K, 2220 kPa	–	47.44 mPa·s
293.35 K, 2270 kPa	–	47.58 mPa·s
293.35 K, 5010 kPa	–	49.43 mPa·s
293.35 K, 5030 kPa	–	49.23 mPa·s
293.35 K, 5040 kPa	–	49.42 mPa·s
293.35 K, 10520 kPa	–	51.72 mPa·s
293.35 K, 10530 kPa	–	51.62 mPa·s
293.35 K, 10540 kPa	–	51.26 mPa·s
293.35 K, 10620 kPa	–	51.34 mPa·s
293.35 K, 10630 kPa	–	51.5 mPa·s
293.35 K, 20180 kPa	–	56.36 mPa·s
293.35 K, 20210 kPa	–	56.39 mPa·s and 56.29 mPa·s and 56.71 mPa·s
293.35 K, 29650 kPa	–	61.22 mPa·s
293.35 K, 29660 kPa	–	61.45 mPa·s
293.35 K, 62400 kPa	–	81.01 mPa·s
293.35 K, 62810 kPa	–	81.71 mPa·s
293.35 K, 63230 kPa	–	82.04 mPa·s
303 K, 190 kPa	–	28.88 mPa·s [middle of 5 runs]
303 K, 330 kPa	–	28.5 mPa·s and 29.08 mPa·s
303 K, 340 kPa	–	29.02 mPa·s
303 K, 1210 kPa	–	29.06 mPa·s
303 K, 1220 kPa	–	29.35 mPa·s and 29.62 mPa·s
303 K, 2000 kPa	–	29.4 mPa·s
303 K, 2020 kPa	–	29.29 mPa·s
303 K, 2030 kPa	–	29.32 mPa·s
303 K, 2100 kPa	–	29.31 mPa·s
303 K, 2150 kPa	–	29.15 mPa·s
303 K, 5250 kPa	–	30.07 mPa·s
303 K, 5270 kPa	–	30.07 mPa·s
303 K, 5280 kPa	–	30.31 mPa·s
303 K, 10160 kPa	–	31.63 mPa·s
303 K, 10170 kPa	–	31.41 mPa·s
303 K, 10190 kPa	–	31.65 mPa·s
303 K, 10210 kPa	–	31.52 mPa·s
303 K, 10220 kPa	–	31.49 mPa·s and 31.52 mPa·s
303 K, 20290 kPa	–	34.2 mPa·s
303 K, 20300 kPa	–	34.25 mPa·s
303 K, 20320 kPa	–	34.32 mPa·s
303 K, 20330 kPa	–	34.25 mPa·s and 34.3 mPa·s
303 K, 30260 kPa	–	37.03 mPa·s and 37.15 mPa·s and 37.36 mPa·s
303 K, 30270 kPa	–	37 mPa·s
303 K, 50510 kPa	–	43.39 mPa·s
303 K, 50590 kPa	–	43.57 mPa·s
303 K, 50660 kPa	–	43.63 mPa·s
303 K, 64010 kPa	–	47.91 mPa·s
303 K, 65190 kPa	–	48.95 mPa·s
303 K, 66350 kPa	–	49.26 mPa·s
303.15 K, 100 kPa	1115.2 kg/m3 and 1115.1 kg/m3	–
303.15 K, 630 kPa	1115.4 kg/m3	–
303.15 K, 1130 kPa	1115.6 kg/m3	–
303.15 K, 1620 kPa	1115.9 kg/m3	–
303.15 K, 2140 kPa	1116.1 kg/m3	–
303.15 K, 3070 kPa	1116.5 kg/m3	–
303.15 K, 5080 kPa	1117.4 kg/m3	–
303.15 K, 6960 kPa	1118.3 kg/m3	–
303.15 K, 9960 kPa	1119.6 kg/m3	–
303.15 K, 14840 kPa	1121.7 kg/m3	–
303.15 K, 19750 kPa	1123.8 kg/m3	–
303.15 K, 24670 kPa	1125.9 kg/m3	–
303.15 K, 29570 kPa	1127.9 kg/m3	–
303.15 K, 34500 kPa	1129.9 kg/m3	–
303.15 K, 39360 kPa	1131.9 kg/m3	–
303.15 K, 44300 kPa	1133.8 kg/m3	–
303.15 K, 49190 kPa	1135.7 kg/m3	–
303.15 K, 54090 kPa	1137.6 kg/m3	–
303.15 K, 58850 kPa	1139.3 kg/m3	–
303.15 K, 63890 kPa	1141.2 kg/m3	–
303.15 K, 68750 kPa	1142.9 kg/m3	–
313.15 K, 100 kPa	1107.4 kg/m3	–
313.15 K, 670 kPa	1107.6 kg/m3	–
313.15 K, 1130 kPa	1107.9 kg/m3	–
313.15 K, 1600 kPa	1108.1 kg/m3	–
313.15 K, 2080 kPa	1108.3 kg/m3	–
313.15 K, 3100 kPa	1108.8 kg/m3	–
313.15 K, 5030 kPa	1109.7 kg/m3	–
313.15 K, 7010 kPa	1110.6 kg/m3	–
313.15 K, 10010 kPa	1112 kg/m3	–
313.15 K, 14880 kPa	1114.2 kg/m3	–
313.15 K, 19750 kPa	1116.4 kg/m3	–
313.15 K, 24680 kPa	1118.6 kg/m3	–
313.15 K, 29560 kPa	1120.6 kg/m3	–
313.15 K, 34510 kPa	1122.7 kg/m3	–
313.15 K, 39330 kPa	1124.7 kg/m3	–
313.15 K, 44290 kPa	1126.7 kg/m3	–
313.15 K, 49180 kPa	1128.6 kg/m3	–
313.15 K, 54160 kPa	1130.6 kg/m3	–
313.15 K, 59000 kPa	1132.4 kg/m3	–
313.15 K, 63910 kPa	1134.3 kg/m3	–
313.15 K, 68840 kPa	1136 kg/m3	–
313.26 K, 170 kPa	–	18.68 mPa·s [middle of 4 runs]
313.26 K, 510 kPa	–	18.97 mPa·s and 18.84 mPa·s and 18.73 mPa·s
313.26 K, 520 kPa	–	18.83 mPa·s
313.26 K, 930 kPa	–	18.88 mPa·s [middle of 6 runs]
313.26 K, 4460 kPa	–	19.45 mPa·s
313.26 K, 4470 kPa	–	19.52 mPa·s [middle of 4 runs]
313.26 K, 9660 kPa	–	20.02 mPa·s
313.26 K, 9670 kPa	–	20.2 mPa·s and 20.18 mPa·s
313.26 K, 19980 kPa	–	22.07 mPa·s and 21.92 mPa·s
313.26 K, 19990 kPa	–	21.69 mPa·s
313.26 K, 29400 kPa	–	23.4 mPa·s and 23.28 mPa·s
313.26 K, 29410 kPa	–	23.3 mPa·s
313.26 K, 29530 kPa	–	23.21 mPa·s
313.26 K, 29540 kPa	–	23.53 mPa·s
313.26 K, 29550 kPa	–	23.54 mPa·s
313.26 K, 29570 kPa	–	23.18 mPa·s
313.26 K, 49800 kPa	–	26.84 mPa·s
313.26 K, 49830 kPa	–	27.18 mPa·s
313.26 K, 49920 kPa	–	27.22 mPa·s
313.26 K, 49950 kPa	–	26.89 mPa·s
313.26 K, 64360 kPa	–	29.73 mPa·s
313.26 K, 64840 kPa	–	30.3 mPa·s
313.26 K, 65380 kPa	–	30.08 mPa·s
313.26 K, 66900 kPa	–	30.18 mPa·s
323.15 K, 100 kPa	1099.6 kg/m3 and 1099.5 kg/m3	–
323.15 K, 590 kPa	1099.8 kg/m3	–
323.15 K, 1140 kPa	1100 kg/m3	–
323.15 K, 1600 kPa	1100.3 kg/m3	–
323.15 K, 2080 kPa	1100.5 kg/m3	–
323.15 K, 3020 kPa	1101 kg/m3	–
323.15 K, 5050 kPa	1101.9 kg/m3	–
323.15 K, 7000 kPa	1102.9 kg/m3	–
323.15 K, 9970 kPa	1104.3 kg/m3	–
323.15 K, 14870 kPa	1106.7 kg/m3	–
323.15 K, 19780 kPa	1108.9 kg/m3	–
323.15 K, 24700 kPa	1111.2 kg/m3	–
323.15 K, 29650 kPa	1113.3 kg/m3	–
323.15 K, 34470 kPa	1115.4 kg/m3	–
323.15 K, 39340 kPa	1117.5 kg/m3	–
323.15 K, 44250 kPa	1119.6 kg/m3	–
323.15 K, 49170 kPa	1121.6 kg/m3	–
323.15 K, 54080 kPa	1123.5 kg/m3	–
323.15 K, 58970 kPa	1125.5 kg/m3	–
323.15 K, 63800 kPa	1127.3 kg/m3	–
323.15 K, 68780 kPa	1129.2 kg/m3	–
333.15 K, 100 kPa	1091.7 kg/m3	–
333.15 K, 660 kPa	1092 kg/m3	–
333.15 K, 1110 kPa	1092.2 kg/m3	–
333.15 K, 1600 kPa	1092.5 kg/m3	–
